Reference: ChEMBL document CHEMBL1133782, “Solid-phase synthesis of cyclic alkoxyketones, inhibitors of the cysteine protease cathepsin K” (Bioorg Med Chem Lett, 2001)

target: T1, Cathepsin K (Homo sapiens, UniProt P43235); experiment: Inhibitory activity against human cysteine protease, cathepsin K.
T1 sequence (P43235 whole entry): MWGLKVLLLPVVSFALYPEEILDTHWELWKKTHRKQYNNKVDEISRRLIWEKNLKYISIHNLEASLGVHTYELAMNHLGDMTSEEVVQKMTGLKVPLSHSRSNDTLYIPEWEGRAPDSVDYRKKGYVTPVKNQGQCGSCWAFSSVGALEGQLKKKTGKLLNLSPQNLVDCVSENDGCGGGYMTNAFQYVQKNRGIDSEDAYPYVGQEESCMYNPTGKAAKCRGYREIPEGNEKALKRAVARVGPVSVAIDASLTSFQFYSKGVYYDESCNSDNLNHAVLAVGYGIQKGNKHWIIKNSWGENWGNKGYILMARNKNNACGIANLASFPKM

Compound | Ki
CC(C)C[C@H](NC(=O)c1ccc(F)c(F)c1)C(=O)NC1COCC1=O (some centres undefined) | 820 nM
CC(C)C[C@H](NC(=O)c1cc2ccccc2o1)C(=O)NC1COCC1=O (some centres undefined) | 53 nM
COCC(=O)[C@H](C)NC(=O)[C@H](CC(C)C)NC(=O)OCc1ccccc1 | 60 nM
O=C(CNC(=O)c1cc2ccccc2s1)NC1COCC1=O (centres undefined) | > 10000 nM
CC(C)C[C@H](NC(=O)c1ccccc1)C(=O)NC1COCC1=O (some centres undefined) | 180 nM
CC(C)C[C@H](NC(=O)c1ccc(-c2ccccc2)cc1)C(=O)NC1COCC1=O (some centres undefined) | 19 nM
CC(C)C[C@H](NC(=O)c1ccc2ccccc2c1)C(=O)NC1COCC1=O (some centres undefined) | 61 nM
CC(C)C[C@H](NC(=O)c1ccccn1)C(=O)NC1COCC1=O (some centres undefined) | 420 nM
CC(C)C[C@H](NC(=O)c1ccc(S(C)(=O)=O)cc1)C(=O)NC1COCC1=O (some centres undefined) | 710 nM
CC(C)C[C@H](NC(=O)c1ccc(C(C)C)cc1)C(=O)NC1COCC1=O (some centres undefined) | 64 nM
O=C(N[C@@H](Cc1ccccc1)C(=O)NC1COCC1=O)c1cc2ccccc2s1 (some centres undefined) | > 10000 nM
CC(C)C[C@H](NC(=O)c1ccc(C(C)(C)C)cc1)C(=O)NC1COCC1=O (some centres undefined) | 15 nM
CC(=O)N[C@@H](CC(C)C)C(=O)NC1COCC1=O (some centres undefined) | > 1000 nM
CC(C)C[C@H](NC(=O)c1cccs1)C(=O)NC1COCC1=O (some centres undefined) | 640 nM
CC(C)C[C@H](NC(=O)C1CCCCC1)C(=O)NC1COCC1=O (some centres undefined) | > 1000 nM
CC(C)C[C@H](NC(=O)OCc1ccccc1)C(=O)NC1COCC1=O (some centres undefined) | 140 nM
CC(C)C[C@H](NC(=O)c1ccc2cc[nH]c2c1)C(=O)NC1COCC1=O (some centres undefined) | 38 nM
CC(C)C[C@H](NC(=O)c1cccc([N+](=O)[O-])c1)C(=O)NC1COCC1=O (some centres undefined) | > 1000 nM
CC(C)C[C@H](NC(=O)c1ccc2ccccc2n1)C(=O)NC1COCC1=O (some centres undefined) | 44 nM

Other lines, results leading:

Ki | Compound
11 nM | CC(C)C[C@H](NC(=O)c1cc2ccccc2s1)C(=O)NC1COCC1=O (some centres undefined)
> 10000 nM | CC(C)[C@H](NC(=O)c1cc2ccccc2s1)C(=O)NC1COCC1=O (some centres undefined)
> 10000 nM | O=C(N[C@@H](Cn1ccnc1)C(=O)NC1COCC1=O)c1cc2ccccc2s1 (some centres undefined)
> 10000 nM | NC(=O)CC[C@H](NC(=O)c1cc2ccccc2s1)C(=O)NC1COCC1=O (some centres undefined)
> 10000 nM | NCCCC[C@H](NC(=O)c1cc2ccccc2s1)C(=O)NC1COCC1=O (some centres undefined)
> 10000 nM | O=C(O)CC[C@H](NC(=O)c1cc2ccccc2s1)C(=O)NC1COCC1=O (some centres undefined)
> 10000 nM | CC(O)[C@H](NC(=O)c1cc2ccccc2s1)C(=O)NC1COCC1=O (some centres undefined)
> 10000 nM | O=C(N[C@@H](CC1CCCCC1)C(=O)NC1COCC1=O)c1cc2ccccc2s1 (some centres undefined)
> 10000 nM | C[C@H](NC(=O)c1cc2ccccc2s1)C(=O)NC1COCC1=O (some centres undefined)
190 nM | CCC[C@H](NC(=O)c1cc2ccccc2s1)C(=O)NC1COCC1=O (some centres undefined)
